Data as given in patent US12194140B2, “Compositions for topical treatment of microbial infections” (Hennepin Life Sciences, priority 2012, dated 2025).
Entries after “also recorded” stand apart in the source; their conditions may differ. One block for each compound: values may come before it.

Key:
[1] = tested on: S. pyogenes (strain 594); experiment: Antibacterial effects of various forms of GML; format: cell-based
Method: In order to test for potential differences between the optical isomers, the R form of GML, which is commercially available, was compared to a GML racemic mixture of the R and S forms. […] Antibacterial effects of these forms of GML was assessed on S. pyogenes (strain 594).

[2] = Solubility of Tenofovir in non-aqueous gels; format: physicochemical; conditions: 10 mg/mL
Method: Non-aqueous gels comprised of propylene glycol (73.55% w/w), polyethylene glycol 400 (25% w/w), and hydroxypropyl cellulose (1.25% w/w) at a range of pH from 4.0 to 4.5 were prepared. The anti-HIV drug Tenofovir was added to the gels at a concentration of 10 mg/mL to determine if the drug was soluble in the compositions.

[3] = tested on: E. coli (Watson strain); experiment: GML and EDTA on the growth of E. coli; format: cell-based; conditions: 24 hours; EDTA 0.05 M to 0.00005 M; GML 100 μg/mL
Method: E. coli (Watson strain) was adjusted to I.2×10^7/mL in Todd Hewitt media. […] Cultures were incubated with shaking (200 RPM) for 24 hours, at which time samples were removed for plate counting. To further assess the combined effects of GML and EDTA, the experiment was carried out as above, and the relative effects on the growth of E. coli of EDTA alone or the combination of GML and EDTA were assessed in direct comparison to GML alone.

SMILES: CCCCCCCCCCCC(=O)OCC(O)CO (stereo not drawn) [mixture of R and S form GML]
antibacterial activity, R form versus mixture of R and S forms [1]: same antibacterial activity

solubility in non-aqueous gel ([2]; pH 4.0-4.3): not soluble
solubility in non-aqueous gel ([2]; pH 4.4 or 4.5): soluble
SMILES: C[C@H](Cn1cnc2c(N)ncnc21)OCP(=O)(O)O [Tenofovir]

SMILES: CCCCCCCCCCCC(=O)OC[C@H](O)CO [R form GML]
antibacterial activity, R form versus mixture of R and S forms [1]: same antibacterial activity

SMILES: O=C(O)CN(CCN(CC(=O)O)CC(=O)O)CC(=O)O [EDTA, ethylenediaminetetraacetic acid]
anti-bacterial activity on growth of E. coli (CFU/mL) [3]: inhibited the growth of E. coli somewhat, in a dose-dependent manner; also recorded: inhibited the growth of E. coli to some extent at higher concentrations

SMILES: CCCCCCCCCCCC(=O)OC(CO)CO [Glycerol monolaurate (GML) 2-position]
activity relative to the mixture of 2-position and ⅓-position GML forms [1]: 2 fold
